Reference: patent publication US20230250108A1, “TETRAHYDROISOQUINOLINE COMPOUNDS AND USE THEREOF” (JIANGSU SIMCERE PHARMACEUTICAL CO., LTD., priority 2020, published 2023)
pIC50: −log10 of the molar value. Where a name gives a salt, the structure may show the parent alone.

Experiments:
PRMT5/MEP50 = biological target: T1, PRMT5/MEP50 (Homo sapiens, UniProt O14744); experiment: PRMT5 enzymatic activity inhibition experiment (AlphaScreen); format: biochemical; details: PRMT5/MEP50, Histone H4 peptide substrate; read-out: Inhibition of enzymatic activity IC50
T1 construct: purchased BPS Bioscience Inc. (USA)
Text: Materials: PRMT5/MEP50 proteins were purchased from BPS Bioscience Inc. (USA); Histone H4 Peptide substrate was purchased from Sangon Biotech (Shanghai) Co., Ltd.; Anti-Histone H4 (symmetric dimethyl R3) antibody—ChIP Grade was purchased from Abcam PLC. (USA); S-(5′-Adenosyl)-L-methionine chloride dihydrochloride was purchased from Sigma PLC. (USA); 384-well plate, AlphaScreen Streptavidin Donor beads, AlphaScreen Protein A Acceptor beads, and Envision 2104 multi-label Reader were purchased from Perkin-Elmer Instruments (USA) Corporation; and Echo 550 Liquid Handler was purchased from Labcyte Inc. (USA).
Enzymatic activity assay: The compounds were added into a 384-well plate by using the Echo 550 Liquid Handler with the final concentration of 0-1000 nM (initial concentration: 1000 nM, 3-fold dilution, for 10 points), and the DMSO content was 0.5%. 10 μL of a 2× PRMT5/MEP50 solution was added into each well and incubated at room temperature for 30 minutes. 10 μL of 2× PRMT5/MEP50 substrate solution was added to each well to start the reaction and incubated at room temperature for 60 minutes. A 6× detection reagent containing AlphaScreen Protein A Acceptor beads and Anti-Histone H4 (symmetric dimethyl R3) antibodies was prepared and 5 μL was added to each well. The plate was incubated at room temperature for 60 minutes. A 6× detection reagent containing AlphaScreen Streptavidin Donor beads was prepared and 5 μL was added to each well. The plate was incubated at room temperature for 60 minutes. The signal values were detected by using the Envision.

Z-138 cells = experiment: Inhibitory activity on tumor cell proliferation (Cell-Titer Glo, 8 days); format: cell-based; details: Homo sapiens, 192 h, read-out: Inhibition of cell proliferation Z-138 IC50
Method: Materials and cells: Z-138 cells were purchased from ATCC (USA); IMDM medium and penicillin-streptomycin were purchased from Sigma PLC. (USA); horse serum was purchased from Hyclone (USA); 96-well plate was purchased from Corning (USA); and Cell-Titer Glo reagent was purchased from Promega (USA).
Cell culture: Z-138 cells were cultured in an IMDM culture solution containing 10% Horse serum+1% penicillin−streptomycin at 37° C., 5% CO2. Cells in logarithmic growth phase were suitable for the experiment.
Detection of cell proliferation activity: The inhibitory activities of the compounds on the proliferation of Z-138 cells were detected by using the Cell-Titer Glo reagent. The concentrations of the cells were adjusted, and 180 μL was inoculated in each well of the 96-well plate (500/well) and equilibrated for 10-15 minutes at 37° C., 5% CO2. 20 μL of a culture solution containing the compounds was added into each well with the final concentration reaching 0-300 nM (initial concentration: 300 nM, 3-fold dilution, for 10 points), and the DMSO content was 0.1%. The cell plate was placed at 37° C., 5% CO2 and incubated for 8 days. Culture solution was replaced at day 4: 100 μL of the supernatant was slowly aspirated and 100 μL of a fresh culture solution containing the compounds was provided as a supplement while the concentrations of the compounds were held constant. The cell viability was detected by using the Cell-Titer Glo reagent.

T1 sequence (O14744 2-637 limits assumed): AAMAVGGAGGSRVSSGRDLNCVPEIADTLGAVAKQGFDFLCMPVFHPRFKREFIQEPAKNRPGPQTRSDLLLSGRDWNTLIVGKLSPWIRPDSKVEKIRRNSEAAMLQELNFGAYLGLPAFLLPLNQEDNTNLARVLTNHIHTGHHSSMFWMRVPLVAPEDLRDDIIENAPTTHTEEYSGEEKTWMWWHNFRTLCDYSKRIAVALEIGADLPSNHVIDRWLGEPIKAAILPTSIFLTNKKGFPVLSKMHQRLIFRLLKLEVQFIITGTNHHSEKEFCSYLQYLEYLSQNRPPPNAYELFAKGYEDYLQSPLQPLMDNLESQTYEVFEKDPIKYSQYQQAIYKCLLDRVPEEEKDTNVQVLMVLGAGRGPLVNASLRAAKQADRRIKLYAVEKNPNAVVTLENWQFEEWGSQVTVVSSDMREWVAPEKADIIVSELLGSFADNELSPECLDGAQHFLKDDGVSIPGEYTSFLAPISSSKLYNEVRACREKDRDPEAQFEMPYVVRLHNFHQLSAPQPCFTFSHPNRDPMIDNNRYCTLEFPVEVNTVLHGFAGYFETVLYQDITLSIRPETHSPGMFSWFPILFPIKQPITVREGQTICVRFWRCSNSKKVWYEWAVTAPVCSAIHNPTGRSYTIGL
T1 sequence (Q9BQA1 2-342 partner limits assumed): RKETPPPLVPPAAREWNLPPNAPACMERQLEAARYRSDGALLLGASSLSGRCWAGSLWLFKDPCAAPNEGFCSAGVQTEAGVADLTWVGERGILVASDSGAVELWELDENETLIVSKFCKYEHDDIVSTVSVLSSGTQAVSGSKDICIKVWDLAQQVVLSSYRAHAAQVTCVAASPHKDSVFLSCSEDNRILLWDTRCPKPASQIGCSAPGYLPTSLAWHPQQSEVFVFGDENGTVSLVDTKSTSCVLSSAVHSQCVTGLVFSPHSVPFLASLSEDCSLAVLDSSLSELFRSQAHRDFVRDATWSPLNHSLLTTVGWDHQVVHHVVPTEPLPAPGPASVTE

Compound | pIC50 (PRMT5/MEP50) | pIC50 (Z-138 cells)
O=C1c2ccc(C(=O)N3C4CCC3COC4)cc2OCCN1C[C@@H](O)[C@@H]1Cc2ccccc2CN1 [Compound 007, 8-(3-oxa-8-azabicyclo[3.2.1]octane-8-carbonyl)-4-((R)-2-hydroxy-2-((S)-1,2,3,4-tetrahydroisoquinolin-3-yl)ethyl)-3,4-dihydrobenzo[f][1,4]oxazepin-5(2H)-one] | 8.12 | 8.12
CCN1CCN(C[C@@H](O)[C@@H]2Cc3ccccc3CN2)C(=O)c2ccc(C(=O)N3CCC4(CCOCC4)C3)cc21 [Compound 010, 1-ethyl-4-((R)-2-hydroxy-2-((S)-1,2,3,4-tetrahydroisoquinolin-3-yl)ethyl)-8-(8-oxa-2-azaspiro[4.5]decane-2-carbonyl)-1,2,3,4-tetrahydro-5H-benzo[e][1,4]diazepin-5-one hydrochloride] | – | 8.71
CCN1CCN(C[C@@H](O)[C@@H]2Cc3ccccc3CN2)C(=O)c2ccc(C(=O)N3CC4(CCC(OC)CC4)C3)cc21 [Compound 011, 1-ethyl-4-((R)-2-hydroxy-2-((S)-1,2,3,4-tetrahydroisoquinolin-3-yl)ethyl)-8-(7-methoxy-2-azaspiro[3.5]nonane-2-carbonyl)-1,2,3,4-tetrahydro-5H-benzo[e][1,4]diazepin-5-one hydrochloride] | – | 8.66
CCN1CCN(C[C@@H](O)[C@@H]2Cc3ccccc3CN2)C(=O)c2ccc(C(=O)N3CCC4(CC4)C(F)(F)C3)cc21 [Compound 012, 8-(4,4-difluoro-6-azaspiro[2.5]octane-6-carbonyl)-1-ethyl-4-((R)-2-hydroxy-2-((S)-1,2,3,4-tetrahydroisoquinolin-3-yl)ethyl)-1,2,3,4-tetrahydro-5H-benzo[e][1,4]diazepin-5-one hydrochloride] | – | 8.39
CCN1CCN(C[C@@H](O)[C@@H]2Cc3ccccc3CN2)C(=O)c2ccc(C(=O)N3CCC4(CC3)CC4(F)F)cc21 [Compound 013, 8-(1,1-difluoro-6-azaspiro[2.5]octane-6-carbonyl)-1-ethyl-4-((R)-2-hydroxy-2-((S)-1,2,3,4-tetrahydroisoquinolin-3-yl)ethyl)-1,2,3,4-tetrahydro-5H-benzo[e][1,4]diazepin-5-one hydrochloride] | – | 8.63
CCN1CCN(C[C@@H](O)[C@@H]2Cc3ccccc3CN2)C(=O)c2ccc(C(=O)N3CCOCC3)cc21 [Compound 014, 1-ethyl-4-((R)-2-hydroxy-2-((S)-1,2,3,4-tetrahydroisoquinolin-3-yl)ethyl)-8-(morpholine-4-carbonyl)-1,2,3,4-tetrahydro-5H-benzo[e][1,4]diazepin-5-one hydrochloride] | – | 7.93
CCN1CCN(C[C@@H](O)[C@@H]2Cc3ccccc3CN2)C(=O)c2ccc(C(=O)N3CCN(C(C)=O)CC3)cc21 [Compound 015, 8-(4-acetylpiperazine-1-carbonyl)-1-ethyl-4-((R)-2-hydroxy-2-((S)-1,2,3,4-tetrahydroisoquinolin-3-yl)ethyl)-1,2,3,4-tetrahydro-5H-benzo[e][1,4]diazepin-5-one hydrochloride] | – | 7.95
CCN1CCN(C[C@@H](O)[C@@H]2Cc3ccccc3CN2)C(=O)c2ccc(C(=O)N(C)Cc3ccccc3)cc21 [Compound 016, N-benzyl-1-ethyl-4-((R)-2-hydroxy-2-((S)-1,2,3,4-tetrahydroisoquinolin-3-yl)ethyl)-N-methyl-5-oxo-2,3,4,5-tetrahydro-1H-benzo[e][1,4]diaza-8-carboxamide hydrochloride] | – | 7.35
CCN1CCN(C[C@@H](O)[C@@H]2Cc3ccccc3CN2)C(=O)c2ccc(C(=O)N(C)CCc3ccc(F)cc3)cc21 [Compound 017, 1-ethyl-N-(4-fluorophenethyl)-4-((R)-2-hydroxy-2-((S)-1,2,3,4-tetrahydroisoquinolin-3-yl)ethyl)-N-methyl-5-oxo-2,3,4,5-tetrahydro-1H-benzo[e][1,4]diazepine-8-carboxamide hydrochloride] | – | 7.56
CCN1CCN(C[C@@H](O)[C@@H]2Cc3ccccc3CN2)C(=O)c2ccc(C(=O)N(C)CCc3cccnc3)cc21 [Compound 018, 1-ethyl-4-((R)-2-hydroxy-2-((S)-1,2,3,4-tetrahydroisoquinolin-3-yl)ethyl)-N-methyl-5-oxo-N-(2-(pyridin-3-yl)ethyl)-2,3,4,5-tetrahydro-1H-benzo[e][1,4]diazepine-8-carboxamide hydrochloride] | – | 7.59
CCN(CC)C(=O)c1ccc2c(c1)N(CC)CCN(C[C@@H](O)[C@@H]1Cc3ccccc3CN1)C2=O [Compound 019, N,N,1-triethyl-4-((R)-2-hydroxy-2-((S)-1,2,3,4-tetrahydroisoquinolin-3-yl)ethyl)-5-oxo-2,3,4,5-tetrahydro-1H-benzo[e][1,4]diazepine-8-carboxamide hydrochloride] | – | 7.69
CCN1CCN(C[C@@H](O)[C@@H]2Cc3ccccc3CN2)C(=O)c2ccc(C(=O)N3C4CCCC3COC4)cc21 [Compound 020, 8-(3-oxa-9-azabicyclo[3,3,1]nonane-9-carbonyl)-1-ethyl-4-((R)-2-hydroxy-2-((S)-1,2,3,4-tetrahydroisoquinolin-3-yl)ethyl)-1,2,3,4-tetrahydro-5H-benzo[e][1,4]diazepin-5-one hydrochloride] | – | 8.43
CCN1CCN(C[C@@H](O)[C@@H]2Cc3ccccc3CN2)C(=O)c2ccc(C(=O)N3CCC4(CC3)CC(N(C)C)C4)cc21 [Compound 021, 8-(2-(dimethylamino)-7-azaspiro[3.5]nonane-7-carbonyl)-1-ethyl-4-((R)-2-hydroxy-2-((S)-1,2,3,4-tetrahydroisoquinolin-3-yl)ethyl)-1,2,3,4-tetrahydro-5H-benzo[e][1,4]diazepin-5-one hydrochloride] | – | 8.08
CCN1CCN(C[C@@H](O)[C@@H]2Cc3ccccc3CN2)C(=O)c2ccc(C(=O)N3C4CCC3CC(O)C4)cc21 (stereo partly drawn) [Compound 022, 1-ethyl-4-((R)-2-hydroxy-2-((S)-1,2,3,4-tetrahydroisoquinolin-3-yl)ethyl)-8-(3-hydroxy-8-azabicyclo[3.2.1]octane-8-carbonyl)-1,2,3,4-tetrahydro-5H-benzo[e][1,4]diazepin-5-one hydrochloride] | – | 7.83
CCN1CCN(C[C@@H](O)[C@@H]2Cc3ccccc3CN2)C(=O)c2ccc(C(=O)N3CC4COCC4C3)cc21 (stereo partly drawn) [Compound 023, 1-ethyl-8-(hexahydro-1H-furo[3,4-c]pyrrole-5-carbonyl)-4-((R)-2-hydroxy-2-((S)-1,2,3,4-tetrahydroisoquinolin-3-yl)ethyl)-1,2,3,4-tetrahydro-5H-benzo[e][1,4]diazepin-5-one hydrochloride] | – | 7.78
CCN1CCN(C[C@@H](O)[C@@H]2Cc3ccccc3CN2)C(=O)c2ccc(C(=O)N3CC4(COC4)C3)cc21 [Compound 025, 1-ethyl-4-((R)-2-hydroxy-2-((S)-1,2,3,4-tetrahydroisoquinolin-3-yl)ethyl)-8-(2-oxa-6-azaspiro[3.3]heptane-6-carbonyl)-1,2,3,4-tetrahydro-5H-benzo[e][1,4]diazepin-5-one] | – | 6.86
CCN1CCN(C[C@@H](O)[C@@H]2Cc3ccccc3CN2)C(=O)c2ccc(C(=O)N3CCC4(CC3)CC(=O)C4)cc21 [Compound 026, 1-ethyl-4-((R)-2-hydroxy-2-((S)-1,2,3,4-tetrahydroisoquinolin-3-yl)ethyl)-8-(2-oxo-7-azaspiro[3.5]nonane-7-carbonyl)-1,2,3,4-tetrahydro-5H-benzo[e][1,4]diazepin-5-one] | – | 8.25
Cl.[2H]C([2H])([2H])OC1CC2(CCN(C(=O)c3ccc4c(c3)N(CC)CCN(C[C@@H](O)[C@@H]3Cc5ccccc5CN3)C4=O)CC2)C1 [Compound 027, 1-ethyl-4-((R)-2-hydroxy-2-((S)-1,2,3,4-tetrahydroisoquinolin-3-yl)ethyl)-8-(2-(methoxy-d3)-7-azaspiro[3.5]nonane-7-carbonyl)-1,2,3,4-tetrahydro-5H-benzo[e][1,4]diazepin-5-one hydrochloride] | – | 8.63
